Earlier results as cited in patent US20250032494A1, “A COMBINATION TREATMENT FOR CANCER” (My Personal Therapeutics LTD, priority 2021, published 2025).

Columns and labels:
[1] = patients; with and without co-administration of DMARDs
[2] = patients; versus cytotoxic active controls dacarbazine or paclitaxel
[3] = test system: tumors with the BRAF V600 mutation; conditions: both in vitro and in vivo

Row | Structure (SMILES) | improvement over placebo [1] | progression-free survival [2] | cell growth of tumors with the BRAF V600 mutation [3]
1 | CCOc1cc([C@@H](CS(C)(=O)=O)N2C(=O)c3cccc(NC(C)=O)c3C2=O)ccc1OC [Apremilast] | statistically significant improvement over placebo | – | –
2 | CC(=O)Nc1cccc(-n2c(=O)n(C3CC3)c(=O)c3c(Nc4ccc(I)cc4F)n(C)c(=O)c(C)c32)c1 [Trametinib] | – | statistically significant increase in progression-free survival | inhibits cell growth
